The IC50 is the concentration that inhibits the measured activity by half.

Assay [1] has as its target T1, BRAF (Homo sapiens, UniProt P15056).
T1 construct: GST; purchased Millipore Sigma B4062-10UG
Kind of assay: BRAF kinase activity assay (ADP-Glo). As to conditions: 10 μM ATP, kinase-dead MEK1 substrate. In kind it is biochemical. The essentials:
(§1)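 ADP-Glo luminescence read after 2 h reactions at 30° C containing 0.375 nM GST-kinase, kinase-dead MEK1 (75 nM), ATP at 10 μM, pH 7.5 HEPES/MgCl2/DTT, 0.05% DMSO. Compounds dosed from 100 to 0.01 nM (nine points); IC50 from variable-slope fit of % inhibition.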

The target in assay [2] is T2, CRAF (Homo sapiens, UniProt P04049).
T2 construct: fused on or other part: GST tag (N-terminal according to the vendor's product)
T2 sequence (P04049 whole entry Y340E/Y341E, form open, the tested form may be a part): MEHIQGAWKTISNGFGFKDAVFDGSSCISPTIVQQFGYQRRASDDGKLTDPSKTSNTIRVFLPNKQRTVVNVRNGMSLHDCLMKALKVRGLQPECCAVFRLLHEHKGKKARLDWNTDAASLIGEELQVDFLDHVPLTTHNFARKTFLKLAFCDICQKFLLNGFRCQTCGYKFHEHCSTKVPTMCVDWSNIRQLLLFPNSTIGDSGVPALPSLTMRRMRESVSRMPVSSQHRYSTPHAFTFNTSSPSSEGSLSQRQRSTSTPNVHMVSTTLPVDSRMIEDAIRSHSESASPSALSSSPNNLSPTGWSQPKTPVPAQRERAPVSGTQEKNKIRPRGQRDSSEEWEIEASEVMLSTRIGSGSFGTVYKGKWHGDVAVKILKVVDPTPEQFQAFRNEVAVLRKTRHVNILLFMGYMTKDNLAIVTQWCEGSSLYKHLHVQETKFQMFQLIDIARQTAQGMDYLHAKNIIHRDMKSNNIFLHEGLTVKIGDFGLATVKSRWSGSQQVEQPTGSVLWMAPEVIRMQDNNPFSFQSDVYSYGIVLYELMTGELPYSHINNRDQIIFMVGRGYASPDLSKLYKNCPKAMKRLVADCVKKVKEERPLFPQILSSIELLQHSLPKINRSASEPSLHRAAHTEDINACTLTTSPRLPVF
Kind of assay: CRAF kinase activity assay (ADP-Glo). As to conditions: 10 μM ATP, kinase-dead MEK1 substrate. In kind it is biochemical. Put shortly: as §1
(In general: In ADP-Glo the light output rises with the ADP produced.)

In assay [3] the test system is pERK, HCT116 cells. The experiment in a line: Phospho-ERK inhibition, AlphaLISA p-ERK 1/2, HCT-116. In kind it is cell-based, human. As to conditions: for IC50: HCT116 cells (KRAS G13D), 1 h treatment; for HCT116 pERK (Ymin %): lowest % inhibition value of the pERK IC50 curve, above −20% = no paradoxical induction. Put shortly: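 Cells in RPMI-1640 with 5% FBS plated overnight, then treated 1 h with ten-point dilutions (10 μM to 0.33 nM, 0.5% DMSO). Lysate p-ERK1/2 (Thr202/Tyr204) read by AlphaLISA SureFire Ultra; % inhibition normalised to DMSO and 1 μM trametinib background, IC50 by four-parameter fit.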
(In general: In Alpha technology, singlet oxygen from a donor bead excites a nearby acceptor bead.)

T1 sequence (P15056 whole entry): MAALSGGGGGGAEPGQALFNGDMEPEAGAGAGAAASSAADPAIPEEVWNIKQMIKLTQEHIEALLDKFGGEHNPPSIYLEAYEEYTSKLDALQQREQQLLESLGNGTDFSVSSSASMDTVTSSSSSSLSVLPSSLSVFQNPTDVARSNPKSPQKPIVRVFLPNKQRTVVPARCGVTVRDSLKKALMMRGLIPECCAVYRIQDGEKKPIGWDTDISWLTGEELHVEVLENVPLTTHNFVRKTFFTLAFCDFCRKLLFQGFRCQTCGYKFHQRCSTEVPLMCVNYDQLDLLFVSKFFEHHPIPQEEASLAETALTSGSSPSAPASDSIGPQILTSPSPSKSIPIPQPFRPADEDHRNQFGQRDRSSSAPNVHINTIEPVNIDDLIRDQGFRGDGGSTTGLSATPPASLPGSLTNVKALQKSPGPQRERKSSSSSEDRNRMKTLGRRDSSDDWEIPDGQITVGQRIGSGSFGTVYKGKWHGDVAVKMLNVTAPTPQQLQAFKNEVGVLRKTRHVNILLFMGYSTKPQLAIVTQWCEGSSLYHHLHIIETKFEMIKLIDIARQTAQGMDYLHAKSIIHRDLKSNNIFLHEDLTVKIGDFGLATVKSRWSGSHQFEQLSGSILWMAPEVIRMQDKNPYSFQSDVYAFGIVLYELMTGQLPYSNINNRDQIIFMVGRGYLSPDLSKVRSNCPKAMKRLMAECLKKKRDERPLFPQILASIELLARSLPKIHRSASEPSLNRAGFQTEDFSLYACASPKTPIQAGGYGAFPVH

In the case of `CN(C1CCOC1)S(=O)(=O)c1cn(-c2nc3c(Nc4c(F)ccc(NS(=O)(=O)c5cccc(Cl)c5Cl)c4F)ncnc3s2)c2ccccc12` (centres unmarked) [Example 66], the IC50 was 1 to 10 nM in assay [1] (Table 3), 10 to 50 nM in assay [2] (Table 3) and < 500 nM in assay [3] (Table 3). In addition, in assay [3] (Table 3), the “HCT116 pERK (Ymin %)” value was −13%.

In the case of `C[C@@H]1CN(S(=O)(=O)c2cn(-c3nc4c(Nc5c(F)ccc(NS(=O)(=O)c6cccc(Cl)c6Cl)c5F)ncnc4s3)c3ccccc23)C[C@H](C)N1` [Example 82], the results for the half-inhibitory concentration (IC50) in assay [1] (Table 3), in assay [2] (Table 3) and in assay [3] (Table 3) were 1 to 10 nM, 10 to 50 nM and 500 to 1000 nM, respectively. In addition, the “HCT116 pERK (Ymin %)” value in assay [3] (Table 3) is on record as −13%.

`CCC1(O)CN(C(=O)c2cn(-c3nc4c(Nc5c(F)ccc(NS(=O)(=O)c6cccc(Cl)c6Cl)c5F)ncnc4s3)c3ccccc23)C1` [Example 95]: the figures for the IC50 in assay [1] (Table 3), in assay [2] (Table 3) and in assay [3] (Table 3) were 1 to 10 nM, < 10 nM and < 500 nM, respectively. In addition, the “HCT116 pERK (Ymin %)” value in assay [3] (Table 3) was −6%.

Take `NC(=O)c1cccc2c1ncn2-c1nc2c(Nc3c(F)ccc(NS(=O)(=O)c4cccc(Cl)c4Cl)c3F)ncnc2s1` [Example 123]: the IC50 in assay [1] (Table 3) is 1 to 10 nM; in assay [2] (Table 3), < 10 nM; in assay [3] (Table 3), < 500 nM. Moreover, the “HCT116 pERK (Ymin %)” value in assay [3] (Table 3) is reported as −11%.

Turning to `Cc1c(F)cccc1S(=O)(=O)Nc1ccc(F)c(Nc2ncnc3sc(-n4nnc5ccccc54)nc23)c1F` [Example 22], the IC50 in assay [1] (Table 3) was > 10 nM; in assay [2] (Table 3), > 50 nM; in assay [3] (Table 3) it was 1000 to 10000 nM. In assay [3] (Table 3), the “HCT116 pERK (Ymin %)” value is on record as −8%.

With `CN(CCN1CCOCC1)S(=O)(=O)c1cn(-c2nc3c(Nc4c(F)ccc(NS(=O)(=O)c5cccc(Cl)c5Cl)c4F)ncnc3s2)c2ccccc12` [Example 83], the IC50 in assay [1] (Table 3) fell in the range of 1 to 10 nM; in assay [2] (Table 3), 10 to 50 nM; in assay [3] (Table 3) it was 500 to 1000 nM. The “HCT116 pERK (Ymin %)” value in assay [3] (Table 3) is given as −10%.

Consider `Cc1c(F)cccc1S(=O)(=O)Nc1ccc(F)c(Nc2ncnc3sc(-n4cnc5c(-c6cccnc6)cccc54)nc23)c1F` [Example 8], for which the IC50 in assay [1] (Table 3) was in the range of 1 to 10 nM; in assay [2] (Table 3), 10 to 50 nM; in assay [3] (Homo sapiens, HCT-116, Table 3), 500 to 1000 nM.

Take `CC(C)C(=O)c1cn(-c2nc3c(Nc4c(F)ccc(NS(=O)(=O)c5cccc(Cl)c5Cl)c4F)ncnc3s2)c2ccccc12` [Example 92]: the IC50 in assay [1] (Table 3) was > 10 nM; in assay [2] (Table 3), > 50 nM; in assay [3] (Homo sapiens, HCT-116, Table 3) it was 1000 to 10000 nM.

For `O=S(=O)(Nc1ccc(F)c(Nc2ncnc3sc(-n4cc(S(=O)(=O)N5CC(CO)C5)c5ccccc54)nc23)c1F)c1cccc(Cl)c1Cl` [Example 74], the IC50 in assay [1] (Table 3) is 1 to 10 nM; in assay [2] (Table 3) it was < 10 nM; in assay [3] (Table 3) it was 1000 to 10000 nM. Also, the “HCT116 pERK (Ymin %)” value in assay [3] (Table 3) is −9%.

As to `O=S(=O)(CC1CCOCC1)c1cn(-c2nc3c(Nc4c(F)ccc(NS(=O)(=O)c5cccc(Cl)c5Cl)c4F)ncnc3s2)c2ccccc12` [Example 65], the IC50 in assay [1] (Table 3) lay within 1 to 10 nM; in assay [2] (Table 3), 10 to 50 nM; in assay [3] (Table 3), 500 to 1000 nM. In assay [3] (Table 3), the “HCT116 pERK (Ymin %)” value is given as −3%.

Take `O=S(=O)(Nc1cc(F)c(F)c(Nc2ncnc3sc(-n4cnc5ccccc54)nc23)c1F)c1cccc(Cl)c1Cl` [Example 159, N-[3-[[2-(benzimidazol-1-yl)thiazolo[5,4-d]pyrimidin-7-yl]amino]-2,4,5-trifluoro-phenyl]-2,3-dichloro-benzenesulfonamide]: the IC50 in assay [1] (Table 4) is 1 to 10 nM; in assay [2] (Table 4), < 10 nM; in assay [3] (Homo sapiens, HCT-116, Table 4) it was < 500 nM.

For the molecule `O=S(=O)(Nc1ccc(F)c(Nc2ncnc3sc(-n4cnc(CCO)c4)nc23)c1F)c1cccc(Cl)c1Cl` [Example 121], the IC50 in assay [1] (Table 3) was 1 to 10 nM; in assay [2] (Table 3) it was 10 to 50 nM; in assay [3] (Table 3), 500 to 1000 nM. Besides, in assay [3] (Table 3), the “HCT116 pERK (Ymin %)” value is −11%.

Regarding `O=S(=O)(Nc1ccc(F)c(Nc2ncnc3sc(-n4cnc5c(N6CCN(CCO)CC6)cccc54)nc23)c1F)c1cccc(Cl)c1Cl` [Example 152], the IC50 in assay [1] (Table 3) is < 1 nM; in assay [2] (Table 3) it was < 10 nM; in assay [3] (Table 3), < 500 nM. For the same molecule, in assay [3] (Table 3), the “HCT116 pERK (Ymin %)” value is reported as 0%.

On to `Cc1c(F)cccc1S(=O)(=O)Nc1ccc(F)c(Nc2ncnc3sc(-n4cc(C(=O)N5CCC(CO)C5)c5ccccc54)nc23)c1F` (centres unmarked) [Example 33], for which the IC50 in assay [1] (Table 3) was < 1 nM; in assay [2] (Table 3), < 10 nM; in assay [3] (Table 3), < 500 nM. Further, in assay [3] (Table 3), the “HCT116 pERK (Ymin %)” value is reported as −7%.

With `CCS(=O)(=O)c1cn(-c2nc3c(Nc4c(F)ccc(NS(=O)(=O)c5cccc(Cl)c5Cl)c4F)ncnc3s2)c2ccccc12` [Example 63], the IC50 is 1 to 10 nM in assay [1] (Table 3), 10 to 50 nM in assay [2] (Table 3) and < 500 nM in assay [3] (Table 3). The “HCT116 pERK (Ymin %)” value in assay [3] (Table 3) is listed as −5%.

As for `COCCN(C)C(=O)c1nn(-c2nc3c(Nc4c(F)ccc(NS(=O)(=O)c5cccc(F)c5C)c4F)ncnc3s2)c2ccccc12` [Example 26], the IC50 was > 10 nM in assay [1] (Table 3), > 50 nM in assay [2] (Table 3) and 1000 to 10000 nM in assay [3] (Table 3). Also, the “HCT116 pERK (Ymin %)” value in assay [3] (Table 3) is −13%.

As to `O=S(=O)(Nc1ccc(F)c(Nc2ncnc3sc(-n4ccc5ccccc54)nc23)c1F)c1cccc(Cl)c1Cl` [Example 114], the IC50 was > 10 nM in assay [1] (Table 3), > 50 nM in assay [2] (Table 3) and 1000 to 10000 nM in assay [3] (Table 3). The “HCT116 pERK (Ymin %)” value in assay [3] (Table 3) is reported as −14%.

`CN(CC(F)F)S(=O)(=O)c1cn(-c2nc3c(Nc4c(F)ccc(NS(=O)(=O)c5cccc(Cl)c5Cl)c4F)ncnc3s2)c2ccccc12` [Example 75]: the results for the IC50 in assay [1] (Table 3), in assay [2] (Table 3) and in assay [3] (Table 3) were > 10 nM, 10 to 50 nM and 1000 to 10000 nM, respectively. Also, the “HCT116 pERK (Ymin %)” value in assay [3] (Table 3) is −5%.

`O=S(=O)(Nc1ccc(F)c(Nc2ncnc3sc(-n4cnc5c(N6C7CCC6CC(O)C7)cccc54)nc23)c1F)c1cccc(Cl)c1Cl` (centres unmarked) [Example 129]: the IC50 is 1 to 10 nM in assay [1] (Table 3), > 50 nM in assay [2] (Table 3) and < 500 nM in assay [3] (Table 3). For the same molecule, the “HCT116 pERK (Ymin %)” value in assay [3] (Table 3) is on record as 0%.

Regarding `CCOc1cccc2c1ccn2-c1nc2c(Nc3c(F)ccc(NS(=O)(=O)c4cccc(Cl)c4Cl)c3F)ncnc2s1` [Example 108], the IC50 was 1 to 10 nM in assay [1] (Table 3), 10 to 50 nM in assay [2] (Table 3) and < 500 nM in assay [3] (Table 3). In assay [3] (Table 3), the “HCT116 pERK (Ymin %)” value is on record as −10%.

As to `CC1(O)CCCN(c2cccc3c2ncn3-c2nc3c(Nc4c(F)ccc(NS(=O)(=O)c5cccc(Cl)c5Cl)c4F)ncnc3s2)CC1` (centres unmarked) [Example 150], the IC50 in assay [1] (Table 3) was > 10 nM; in assay [2] (Table 3), 10 to 50 nM; in assay [3] (Table 3), 1000 to 10000 nM. For the same molecule, in assay [3] (Table 3), the “HCT116 pERK (Ymin %)” value is −5%.

As to `COCCOc1ccc2c(ncn2-c2nc3c(Nc4c(F)ccc(NS(=O)(=O)c5cccc(Cl)c5Cl)c4F)ncnc3s2)c1F` [Example 79], the IC50 in assay [1] (Table 3) is 1 to 10 nM; in assay [2] (Table 3), < 10 nM; in assay [3] (Homo sapiens, HCT-116, Table 3), 500 to 1000 nM.

Take `N#CC1CN(C(=O)c2cn(-c3nc4c(Nc5c(F)ccc(NS(=O)(=O)c6cccc(Cl)c6Cl)c5F)ncnc4s3)c3ccccc23)C1` [Example 54]: the IC50 was 1 to 10 nM in assay [1] (Table 3), < 10 nM in assay [2] (Table 3) and < 500 nM in assay [3] (Table 3). Besides, in assay [3] (Table 3), the “HCT116 pERK (Ymin %)” value was −6%.

`COCCOc1cccc2c1ncn2-c1nc2c(Nc3c(F)ccc(NS(=O)(=O)c4cccc(Cl)c4Cl)c3F)ncnc2s1` [Example 119]: the figures for the IC50 in assay [1] (Table 3), in assay [2] (Table 3) and in assay [3] (Table 3) were < 1 nM, < 10 nM and < 500 nM, respectively. Also, the “HCT116 pERK (Ymin %)” value in assay [3] (Table 3) is −1%.

The record behind these values is US20260137697A1, “THIAZOLO[5,4-D]PYRIMIDINE COMPOUNDS, COMPOSITIONS COMPRISING THEM AND USES THEREOF” (University de Montreal, priority 2022, published 2026).
